Measurements taken from patent publication US10758527B2, “Opioid agonist antagonist combinations” (Alkermes Pharma Ireland Limited, priority 2011, dated 2020).

Key:
Wistar-Kyoto (WKY) rats = assay: Forced swim test (FST); conditions: WKY rats treated with Buprenorphine (0.1 mg/kg)
Protocol: In the “forced swim test” (FST) rats are placed in a tank of water, from which they cannot escape, on two successive days; 15 minutes on the first day and 5 minutes on the second day. While in the water they will swim, attempt to climb the container wall or become “immobile” floating in the water. The total time rats are immobility increases between the first and second day. […] At 24 h after the first swim, rats were retested for 5 minutes. Videos were scored manually for immobility time (in seconds) using a manual stop watch in 60 second intervals by a rater blinded to the treatment groups. A rat was judged to be immobile if it was making only movements necessary to keep its head above water.

[1] = tested on: dopamine efflux in the Nucleus Accumbens shell (NAc-sh); assay: In vivo microdialysis of dopamine efflux in free-moving rats; conditions: antagonist given with Buprenorphine (0.1 mg/kg, SC)
Protocol: Experiments were conducted in rats to assess the ability of opioid antagonists to modulate buprenorphine-induced dopamine efflux in the Nucleus Accumbens shell (NAc-sh) region of the mesolimbic region of the brain. Male rats weighing 300-400 grams were used for all studies. To measure the efflux of dopamine in the NAc-sh an in vivo microdialysis method was utilized in free-moving rats. This method allows the sampling of extracellular cerebrospinal fluid (C SF) from specific brain regions of interest and measurement of neurotransmitter concentrations following the analysis of sampled dialysate with HPLC-EC.
Each rat underwent surgical implantation of microdialysis guide cannula (CMA 12, CMA Microdialysis) to guide the insertion of the microdialysis probe later on. Rats were anesthetized with a mixture of ketamine/xylazine (80/6 mg/kg IP) and placed in a stereotaxic apparatus. […] Guide cannula were capped with dummy probes until microdialysis probe insertion. On the day prior to experimentation (3-4 days post-surgery), animals were weighed to determine appropriate dose for test articles. A microdialysis probe (CMA 12, 2 mm membrane, CMA microdialysis) was then inserted through the guide cannula. […] Each sample was analyzed via HPLC-EC to determine neurotransmitter concentration of dopamine based upon a six-point standard curve.

Row | SMILES | immobility in forced swim test with increased concentrations of Compound-1 (Wistar-Kyoto (WKY) rats) | effect on buprenorphine-induced NAc-sh dopamine efflux [1]
1 | NC(=O)c1ccc2c(c1O)[C@]13CCN(CC4CC4)[C@H](C2)[C@]1(O)CCC(=O)C3 [Compound-1] | Increase in immobility | Reduction in the efflux of dopamine
2 | O=C1CC[C@@]2(O)[C@H]3Cc4ccc(O)c5c4[C@@]2(CCN3CC2CC2)[C@H]1O5 [Naltrexone, naltrexone, reference compound] |  | Reduction in the efflux of dopamine
3 | C=C1CC[C@@]2(O)[C@H]3Cc4ccc(O)c5c4[C@@]2(CCN3CC2CC2)[C@H]1O5 [Nalmefene, nalmefene, reference compound] |  | Reduction in the efflux of dopamine
4 | C=C1CC[C@@]2(O)[C@H]3Cc4ccc(C(N)=O)c(O)c4[C@@]2(CCN3CC2CC2)C1 [Compound-10] |  | Reduction in the efflux of dopamine
